In ChEMBL document CHEMBL1128902, “Selectively deoxygenated sulfated tetrasaccharides as probes for the investigation of smooth muscle cell antiproliferative activity” (1996) one finds Relative inhibitory activity data, which are given here for 2 compounds.

For this test, the species on record is Rattus norvegicus. Nature of the test: Antiproliferative activity against rat smooth muscle cell (SMC) expressed as relative activity compared to heparin; ri is relative inhibitory activity. It counts as functional.

Compound `C[C@@H]1O[C@H](O[C@H]2[C@H](O)[C@H](O)[C@H](O[C@H]3[C@H](O)[C@H](O)[C@@H](O[C@H]4O[C@H](CO)[C@@H](O)[C@@H](O)[C@@H]4O)O[C@H]3CO)O[C@H]2CO)[C@@H](O)[C@@H](O)[C@@H]1O` showed a Relative inhibitory activity of 0.6.
Compound `OC[C@H]1O[C@H](O[C@H]2O[C@H](CO)[C@@H](O[C@H]3O[C@H](CO)[C@@H](O[C@H]4O[C@H](CO)[C@@H](O)[C@H](O)[C@H]4O)[C@H](O)[C@H]3O)[C@H](O)[C@H]2O)[C@H](O)[C@@H](O)[C@@H]1O` gave a Relative inhibitory activity of 0.9.
